This note sets out measurements from US20250281419A1, “LIPID AMINES” (ModernaTX, Inc., priority 2021, published 2025).

Series [1] has as its system HeLa cells. Put plainly: CFTR protein expression assay in HeLa cells (LNPs of Example 2, immunofluorescence). The series is classed as cell-based, Human. Conditions: compared to buffer (PBS) control, 5 h transfection, 24 h incubation, N=4 wells. How it is done: Lipid nanoparticles were prepared using ethanol drop nanoprecipitation followed by solvent exchange into suitable aqueous buffer using dialysis. An exemplary lipid nanoparticle composition can be prepared by a process where lipids are dissolved in ethanol at a concentration of 12.5 mM and molar ratios of 33:15:11:39.5:1.5 (e.g., ionizable lipid:SA46:phospholipid:cholesterol:PL1). Lipid to mRNA is maintained at a N/P ratio of 4.9. Then mRNA is diluted with 25 mM sodium acetate (pH 5.0) and combined with the lipid mixture at a volume ratio of 3:1 (aqueous: ethanol). Resulting formulations are dialyzed against 20 mM tris/8% sucrose/70 mM sodium chloride (pH 7.4) at a volume of 300 times that of the primary product using Slide-A-Lyzer dialysis cassettes (Thermo Scientific, Rockford, IL, USA) with a molecular cutoff of 10 KDa for at least 18 h. The first dialysis is carried out at room temperature in a digital orbital shaker (VWR, Radnor, PA, USA) at 85 rpm for 3 h and then dialyzed overnight at 4° C. Formulations are concentrated using Amicon ultra-centrifugal filters (EMD Millipore, Billerica, MA, USA), passed through a 0.22-μm filter and stored at 4° C. until use. Lipid nanoparticle solutions are typically adjusted to specific mRNA concentrations between 0.1 and 1 mg/mL. LNPs were prepared according to Example 2. To evaluate LNP cellular uptake and protein expression in vitro, HeLa cells from ATCC.org (ATCC CCL-2) are used. The cells are cultured in complete Minimum Essential Medium (MEM) and are plated in 96 well Cell Carrier Ultra plate with PDL coated surface (PerkinElmer) prior to running an experiment. Buffer control (PBS) and LNPs encapsulating cystic fibrosis transmembrane conductance regulator (CFTR) mRNA were dosed with MEM media in the absence of serum (N=4 replicate wells). LNP transfected cells were incubated for 5 h, followed by media removal and supplementation with complete MEM media. Cells were further incubated in complete MEM media overnight (24 h). Following 24 hr incubation, the cells were fixed with PFA and processed for immunofluorescence (IF) using an anti-CFTR rabbit monoclonal antibody. Briefly, the cells were permeabilized with 0.5% TX-100 for 10 min, blocked with 3% bovine serum albumin (BSA)+PBST for 1 hr at room temperature, and incubated with primary anti-CFTR monoclonal antibody overnight at 4° C. Following primary antibody incubation, the cells were incubated with Alexa 488 conjugated secondary antibody for 30 min, and stained with DAPI and HCS CellMask Blue stain. Between different incubation steps the cells were either washed with PBS or PBST. Cells were imaged using Opera Phoenix spinning disk confocal microscope (PerkinElmer), and CFTR protein expression was detected using the 488 nm channel. The image analysis was performed in Harmony 4.9, with main analysis output being CFTR intensity per cell. The results shown in Table 3a show fold-change in CFTR signal intensity per cell compared to buffer (PBS) control (nanoparticle composition: IL1:Lipid Amine:DSPC:Chol:PL1). The results shown in Table 3b show fold-change in CFTR signal intensity per cell compared to buffer (PBS) control (nanoparticle composition: IL1:Lipid Amine:DPPC:Chol:PL1).

The subject of series [2] is HeLa cells. Nature of the series: CFTR protein expression assay in HeLa cells (LNPs analogous to Example 4, lipid amine post-added). The series is classed as cell-based, Human. Conditions: LNP prepared analogous to Example 4 with CFTR mRNA, vs buffer (PBS) control, 5 hr transfection, 24 hr incubation, N=4 wells. The method, then: Lipid nanoparticle compositions were prepared in a manner analogous to that in example 4. To evaluate LNP cellular uptake and protein expression In Vitro, HeLa cells from ATCC.org (ATCC CCL-2) was used. The cells were cultured in complete Minimum Essential Medium (MEM) and were plated in 96 well Cell Carrier Ultra plate with PDL coated surface (PerkinElmer) prior to running an experiment.
Buffer control (PBS) and LNPs encapsulating cystic fibrosis transmembrane conductance regulator (CFTR) mRNA were dosed with MEM media in the absence of serum (N=4 replicate wells). LNP transfected cells were incubated for 5 hr, followed by media removal and supplementation with complete MEM media. Cells were further incubated in complete MEM media overnight (24 hr).
Following 24 hr incubation, the cells were fixed with PFA and processed for immunofluorescence (IF) using an anti-CFTR rabbit monoclonal antibody. Briefly, the cells were permeabilized with 0.5% TX-100 for 10 min, blocked with 3% bovine serum albumin (BSA)+PBST for 1 hr at room temperature, and incubated with primary anti-CFTR monoclonal antibody overnight at 4° C. […] Cells were imaged using Opera Phoenix spinning disk confocal microscope (PerkinElmer), and CFTR protein expression was detected using the 488 nm channel. […]

Series [3] in a line: CFTR mRNA nanoparticle biophysical data (DLS, Ribogreen). Format: physicochemical. How it is done: Lipids were dissolved in ethanol at a concentration of 24 mg/mL and molar ratios of 49.0:11.2:39.3:0.5 (IL1:DSPC:cholesterol:PEG-DMG-2K) and mixed with the acidification buffer (45 mM acetate buffer at pH 4). The lipid solution and acidification buffer were mixed using a multi-inlet vortex mixer at a 3:7 volumetric ratio of lipid:buffer for mixer 1 and mixer 2 and a 1:3 volumetric ratio of lipid:buffer (25% ethanol) for mixer 3. After a 5 second residence time, the resulting nanoparticles were mixed with 55 mM sodium acetate at pH 5.6 at a volumetric ratio of 5:7 of nanoparticle: buffer. See Table 4a for mixing parameters. The resulting dilute nanoparticles were then buffer exchanged and concentrated using tangential flow filtration (TFF) into a final buffer containing 5 mM sodium acetate pH 5.0. Then a 70% sucrose solution in 5 mM acetate buffer at pH 5 is subsequently added.
The resulting nanoparticles at a lipid concentration of 7.33 mg/mL in 5 mM acetate (pH 5) and 75 g/L sucrose were mixed with mRNA (luciferase or CFTR) at a concentration of 0.625 mg/mL in 42.5 mM sodium acetate pH 5.0, with N: P of 4.93. The nanoparticle solution and […] were mixed using a multi-inlet vortex mixer at a 3:2 volumetric ratio of nanoparticle:mRNA. Once loaded with mRNA, these intermediate nanoparticles underwent a 300 second residence time prior addition of neutralization buffer containing 120 mM TRIS pH 8.12 at a volumetric ratio of 5:1 of nanoparticle: buffer.
For HeLa studies evaluating CFTR protein expression, the intermediate nanoparticle formulation (1 mL, 0.415 mg mRNA) is mixed with a buffer containing 20 mM TRIS (pH 7.5), 0.9 mg/mL PEG-DMG-2K and lipid amine SA52 (647.1 nmol) at a volumetric ratio of 6:1 of nanoparticle: buffer. The resulting nanoparticle suspension underwent concentration using a centrifugal filtration device (100 kDa molecular weight cut-off) and was diluted in running buffer (20 mM TRIS, 14.3 mM sodium acetate, and 32 g/L sucrose, pH 7.5) with a 300 mM NaCl solution to a final buffer matrix containing 70 mM NaCl. […]

With `CC(C)CCC[C@@H](C)[C@H]1CC[C@H]2[C@@H]3CC=C4C[C@@H](OC(=O)CCC(=O)N5CCN(C)CCN(C)CC5)CC[C@]4(C)[C@H]3CC[C@]12C` [SA52, (3S,8S,9S,10R,13R,14S,17R)-10,13-Dimethyl-17-((R)-6-methylheptan-2-yl)-2,3,4,7,8,9,10,11,12,13,14,15,16,17-tetradecahydro-1H-cyclopenta[a]phenanthren-3-yl 4-(4,7-dimethyl-1,4,7-triazonan-1-yl)-4-oxobutanoate], the “Average fold-change in CFTR signal intensity per cell ± standard deviation” value with HeLa cells [1] (LNP IL1:Lipid Amine:DPPC:Chol:PL1 with CFTR mRNA) amounted to 9.3 ± 1.2 fold-change; with HeLa cells [1] (LNP IL1:Lipid Amine:DSPC:Chol:PL1 with CFTR mRNA), 2.3 ± 0.1 fold-change. The “Average fold-change in CFTR signal intensity per cell compared to buffer control ± standard deviation” value with HeLa cells [2] turned out to be 3.4 ± 0.5 fold-change. For the same molecule, in series [3] (CFTR mRNA nanoparticle with lipid amine (IL1:DSPC:cholesterol:PEG-DMG-2K core), DLS), the Diameter was 72.4 nm. The same molecule registered a PDI in series [3] (CFTR mRNA nanoparticle with lipid amine, DLS) of 0.11. Moreover, the “% Encapsulation (Ribogreen)” value in series [3] (CFTR mRNA nanoparticle with lipid amine, Ribogreen assay) amounted to 96.6%.
